# Like-named read-outs stand apart in the source and are kept apart here.
# Legend:
# Proteus mirabilis A9554 = assay: microbe, parasite or virus in culture
# [1] = tested on: Pseudomonas aeruginosa A9930; assay: microbe, parasite or virus in culture
# [2] = tested on: Streptococcus pyogenes A20201; assay: Antimicrobial activity, two-fold serial dilution in agar media; assay type: cell-based; settings: Nutrient agar
# [3] = tested on: Candida albicans IAM 4888; assay: microbe, parasite or virus in culture; settings: IAM4888
# [4] = tested on: macromolecule (DNA, RNA and protein) synthesis in L1210 murine leukemia cells; assay: Inhibitory effects on macromolecule (DNA, RNA and protein) synthesis (summary); assay type: cell-based; settings: in words
# [5] = tested on: RNA synthesis in L1210 leukemia cells; assay: Inhibition of RNA synthesis in L1210 leukemia cells (labelled precursor incorporation); assay type: cell-based, murine; settings: Mus musculus, 14C-uridine, 15 min with test material, then 60 min
# [6] = tested on: DNA synthesis in L1210 leukemia cells; assay: Inhibition of DNA synthesis in L1210 leukemia cells (labelled precursor incorporation); assay type: cell-based, murine; settings: Mus musculus, 3H-thymidine, 15 min with test material, then 60 min
# [7] = tested on: B16-F10 (murine melanoma) cells; assay: In vitro cytotoxicity, neutral red staining; assay type: cell-based; settings: Mus musculus; B16-F10, 72 hours, 37° C.
# anaerobic bacteria = assay: Antimicrobial activity, two-fold serial dilution in agar media (summary); assay type: cell-based; settings: in words
# [8] = tested on: Staphylococcus epidermidis D153; assay: Antimicrobial activity, two-fold serial dilution in agar media; assay type: cell-based; settings: Nutrient agar
# [9] = tested on: Aspergillus fumigatus IAM 2530; assay: microbe, parasite or virus in culture; settings: IAM2530
# [10] = tested on: Trichophyton mentagrophytes D155; assay: microbe, parasite or virus in culture
# [11] = tested on: Bacillus subtilis PCI 219; assay: Antimicrobial activity, two-fold serial dilution in agar media; assay type: cell-based; settings: PCI219, Nutrient agar
# [12] = tested on: Klebsiella pneumoniae D11; assay: microbe, parasite or virus in culture
# gram-positive bacteria = assay: Antimicrobial activity, two-fold serial dilution in agar media (summary); assay type: cell-based; settings: in words
# Solubility = assay type: physicochemical
# [13] = tested on: Staphylococcus aureus Smith; assay: Antimicrobial activity, two-fold serial dilution in agar media; assay type: cell-based; settings: Nutrient agar
# [14] = tested on: Moser (human colorectal carcinoma) cells; assay: In vitro cytotoxicity, neutral red staining; assay type: cell-based
# [15] = tested on: Clostridium perfringens A9635; assay: microbe, parasite or virus in culture
# [16] = tested on: Staphylococcus aureus 209P; assay: Antimicrobial activity, two-fold serial dilution in agar media; assay type: cell-based; settings: Nutrient agar
# Proteus vulgalis A9436 = assay: microbe, parasite or virus in culture
# [17] = tested on: Micrococcus luteus PCI 1001; assay: Antimicrobial activity, two-fold serial dilution in agar media; assay type: cell-based; settings: PCI1001, Nutrient agar
# [18] = tested on: Staphylococcus aureus A20234; assay: as above; assay type: cell-based; settings: Nutrient agar
# [19] = tested on: HCT-116 (human colon carcinoma) cells; assay: In vitro cytotoxicity, neutral red staining; assay type: cell-based; settings: HCT-116, 72 hours, 37° C.
# [20] = tested on: Bacteroides fragilis A22035; assay: microbe, parasite or virus in culture
# Escherichia coli NIHJ = assay: microbe, parasite or virus in culture
# [21] = tested on: Protein synthesis in L1210 leukemia cells; assay: Inhibition of protein synthesis in L1210 leukemia cells (labelled precursor incorporation); assay type: cell-based, murine; settings: Mus musculus, 3H-leucine, 15 min with test material, then 60 min
# Yeast and fungi = assay: Antimicrobial activity, two-fold serial dilution in agar media (summary); assay type: cell-based; settings: in words
# [22] = tested on: Streptococcus faecalis A9612; assay: microbe, parasite or virus in culture; settings: Enterococcus faecalis
# [23] = tested on: Clostridium difficile A21675; assay: microbe, parasite or virus in culture; settings: Clostridioides difficile
# [24] = tested on: murine and human tumor cells; assay: In vitro cytotoxicity against tumor cells (summary); assay type: cell-based
# [25] = tested on: Preopionibacterium acnes A21933; assay: Antimicrobial activity, two-fold serial dilution in agar media; assay type: cell-based; settings: Gifu anaerobic medium agar
# gram-negative bacteria = assay: Antimicrobial activity, two-fold serial dilution in agar media (summary); assay type: cell-based; settings: in words
# [26] = tested on: Cryptococcus neoformans D49; assay: microbe, parasite or virus in culture
# [27] = in words, literature; cited from earlier work
compound,measurement,setting,value
Cc1cc2c(c3oc(C(O)(CO)C4CO4)cc(=O)c13)C(=O)c1c(O)cccc1C2=O (stereo not shown) [BU-3839T],MIC,Proteus mirabilis A9554,> 50 µg/mL
same,MIC,[1],> 50 µg/mL
same,MIC,[2],0.1 µg/mL
same,MIC,[3],> 50 µg/mL
same,Inhibition of macromolecule synthesis,[4],"inhibited DNA, RNA and protein synthesis non-specifically"
same,IC50,[5],0.029 µg/mL
same,IC50,[6],0.013 µg/mL
same,IC50,[7],0.0009 µg/mL
same,Activity against anaerobic bacteria,anaerobic bacteria,relatively weak activity
same,MIC,[8],0.1 µg/mL
same,MIC,[9],> 50 µg/mL
same,MIC,[10],> 50 µg/mL
same,MIC,[11],0.05 µg/mL
same,MIC,[12],6.3 µg/mL
same,Inhibitory activity against gram-positive bacteria,gram-positive bacteria,remarkable inhibitory activity
same,Solubility,"Solubility; N,N-dimethylformamide",soluble
same,Solubility,Solubility; alkaline water,slightly soluble
same,Solubility,Solubility; chloroform,slightly soluble
same,Solubility,Solubility; dimethyl sulfoxide,soluble
same,Solubility,Solubility; methylene chloride,slightly soluble
same,Solubility,Solubility; other organic solvents,almost insoluble
same,Solubility,Solubility; water,almost insoluble
same,MIC,[13],0.05 µg/mL
same,IC50,"[14]; Moser, 72 hours, 37° C., read-out: IC50",0.0046 µg/mL
same,MIC,[15],0.4 µg/mL
same,MIC,[16],0.05 µg/mL
same,MIC,Proteus vulgalis A9436,6.3 µg/mL
same,MIC,[17],0.025 µg/mL
same,MIC,[18],0.05 µg/mL
same,IC50,[19],0.0026 µg/mL
same,MIC,[20],0.1 µg/mL
same,MIC,Escherichia coli NIHJ,> 50 µg/mL
same,IC50,[21],0.039 µg/mL
same,Susceptibility of yeast and fungi,Yeast and fungi,not susceptible
same,Body weight change on day 4,"P388 leukemia; 0.008 mg/kg/day, QD × 3, ip",+1.0 g
same,MST (median survival time),"P388 leukemia; 0.008 mg/kg/day, QD × 3, ip",11.0 days
same,T/C,"P388 leukemia; 0.008 mg/kg/day, QD × 3, ip, T/C ≥ […] significant",110%
same,MST (median survival time),"P388 leukemia; 0.5 mg/kg/day, QD × 3, ip",14.5 days
same,MST (median survival time),"P388 leukemia; 1 mg/kg/day, QD × 3, ip",7.0 days
same,maximum T/C value,"P388 leukemia; P388 leukemia, ip, QD×3",145%
same,Chemotherapeutic activity against P388 leukemia,P388 leukemia; in words,relatively broad and moderate chemotherapeutic activity
same,MIC,[22],0.4 µg/mL
same,MIC,[23],0.4 µg/mL
same,Cytotoxicity superior to mitomycin C in terms of IC50 value,"[24]; approximately, ratio to mitomycin C",300-600 times
same,Cytotoxicity against tumor cells,[24]; in words,quite potent
same,MIC,[25],0.8 µg/mL
same,Activity against gram-negative bacteria,gram-negative bacteria,relatively weak activity
same,MIC,[26],> 50 µg/mL
Cc1cc2c(c3oc(C4(C5CO5)CO4)cc(=O)c13)C(=O)c1c(O)cccc1C2=O (stereo not shown) [SF-2330],Antibacterial activity,[27],antibacterial activity
CCC(C)c1cc(=O)c2c(CC(=O)O)cc3c(c2o1)C(=O)c1c(O)cccc1C3=O (stereo not shown) [SS-43405D],Antibacterial activity,[27],antibacterial activity
"CO[C@@]12[C@H](COC(N)=O)C3=C(C(=O)C(C)=C(N)C3=O)N1C[C@@H]1N[C@@H]12 [Mitomycin C, reference compound]",Inhibition of macromolecule synthesis,[4],specific inhibition of DNA synthesis
same,IC50,[14]; 72 h,1.2 µg/mL

# From US5001058A (Bristol-Myers Company, priority 1989, dated 1991)
